Literature values in Sander's compilation of Henry's law constants.
Several values for one entry are separate records, joined by “and”; a condition that tells them apart may be missing. Equal values may be shown once.

Test: Henry solubility constant Hcp at 298.15 K (mol/(m3 Pa))
Conditions: cited value
[1] = reference: Barcelo and Hennion (1997)
[2] = reference: Burkholder et al. (2015)
[3] = reference: Burkholder et al. (2019)
[4] = reference: Petrasek et al. (1983)
[5] = reference: Meylan and Howard (1991)
[6] = reference: Sander et al. (2006)
[7] = reference: Sander et al. (2011)
[8] = reference: Fogg and Sangster (2003)
[9] = reference: Mackay et al. (1992b)

## CC(C)N(C(=O)SCC(Cl)=C(Cl)Cl)C(C)C [triallate]
[1]
  Henry solubility constant Hcp: 0.01

## CCCCC(C=O)CC (stereo not given) [2-ethylhexanal]
reference: Brockbank (2013)
  Henry solubility constant Hcp: 0.012

## CNC [dimethylamine]
reference: Brockbank (2013)
  Henry solubility constant Hcp: 0.62
[2]
  Henry solubility constant Hcp: 0.55
[3]
  Henry solubility constant Hcp: 0.55

## Nc1c(Cl)c(Cl)nc(C(=O)O)c1Cl [picloram]
[1]
  Henry solubility constant Hcp: 290

## OI [hypoiodous acid]
reference: Palmer et al. (1985)
  Henry solubility constant Hcp: > 4.1

## c1ccc2c(c1)ccc1c3ccccc3ccc21 [chrysene]
reference: Brockbank (2013)
  Henry solubility constant Hcp: 15
[4]
  Henry solubility constant Hcp: 6.6

## CN [methanamine]
[2]
  Henry solubility constant Hcp: 0.89
[3]
  Henry solubility constant Hcp: 0.89

## Clc1cc(Cl)c(Cl)c(Cl)c1 [1,2,3,5-tetrachlorobenzene]
[5]
  Henry solubility constant Hcp: 0.0063

## C1CCOCC1 [tetrahydropyran]
reference: Brockbank (2013)
  Henry solubility constant Hcp: 0.081

## CCCCC(CC)COC(=O)c1ccccc1C(=O)OCC(CC)CCCC (stereo not given) [bis(2-ethylhexyl)-phthalate]
[4]
  Henry solubility constant Hcp: 82

## CNC(=O)Oc1cccc2c1OC(C)(C)C2 [carbofuran]
[1]
  Henry solubility constant Hcp: 19

## OCC(F)F [2,2-difluoroethanol]
[2]
  Henry solubility constant Hcp: 0.93
[3]
  Henry solubility constant Hcp: 0.93

## Cc1cccc(C)c1 [1,3-dimethylbenzene]
reference: Brockbank (2013)
  Henry solubility constant Hcp: 0.0015

## CCCI [1-iodopropane]
reference: Brockbank (2013)
  Henry solubility constant Hcp: 0.0011

## O=C1c2ccccc2C(=O)N1SC(Cl)(Cl)Cl [folpet]
[1]
  Henry solubility constant Hcp: 0.026

## C=C [ethene]
[2]
  Henry solubility constant Hcp: 5.9e-05
[3]
  Henry solubility constant Hcp: 5.9e-05
reference: Deno and Berkheimer (1960)
  Henry solubility constant Hcp: 4.7e-05
reference: Hayduk (1994)
  Henry solubility constant Hcp: 4.7e-05
[6]
  Henry solubility constant Hcp: 5.9e-05
[7]
  Henry solubility constant Hcp: 5.9e-05

## CCC(C)C=O (stereo not given) [2-methylbutanal]
reference: Brockbank (2013)
  Henry solubility constant Hcp: 0.025

## CC(Cl)CCl (stereo not given) [1,2-dichloropropane]
reference: Brockbank (2013)
  Henry solubility constant Hcp: 0.0034
[2]
  Henry solubility constant Hcp: 0.0034
[3]
  Henry solubility constant Hcp: 0.0034
reference: Goldstein (1982)
  Henry solubility constant Hcp: 0.0034
reference: Horvath and Getzen (1999)
  Henry solubility constant Hcp: 0.0035

## Cc1cc2ccccc2cc1C [2,3-dimethylnaphthalene]
[5]
  Henry solubility constant Hcp: 0.011

## C=CCCCCC [1-heptene]
reference: Brockbank (2013)
  Henry solubility constant Hcp: 2e-05

## C[C@@H]1CCCC[C@H]1C (relative stereo) [trans-1,2-dimethylcyclohexane]
reference: Brockbank (2013)
  Henry solubility constant Hcp: 1.6e-05

## FC(F)OC(Cl)C(F)(F)F (stereo not given) [1-chloro-2,2,2-trifluoroethyl difluoromethyl ether]
[8]
  Henry solubility constant Hcp: 0.00024

## [O-]O [hydroperoxy radical]
reference: Régimbal and Mozurkewich (1997)
  Henry solubility constant Hcp: 57

## C1=CCC=CC1 [1,4-cyclohexadiene]
reference: Brockbank (2013)
  Henry solubility constant Hcp: 0.0013

## ClCCCCl [1,3-dichloropropane]
reference: Brockbank (2013)
  Henry solubility constant Hcp: 0.012
[2]
  Henry solubility constant Hcp: 0.01
[3]
  Henry solubility constant Hcp: 0.01

## CCCCC(C)O (stereo not given) [2-hexanol]
reference: Brockbank (2013)
  Henry solubility constant Hcp: 0.39

## [Xe] [xenon]
reference: Clever (1979b)
  Henry solubility constant Hcp: 4.3e-05

## S=C([S-])NCCNC(=S)[S-].[Zn+2] [zineb]
reference: MacBean (2012b)
  Henry solubility constant Hcp: > 3700

## ClCCOCOCCCl [bis-(2-chloroethoxy)-methane]
reference: Goldstein (1982)
  Henry solubility constant Hcp: 8.8 and 26

## C=CC(=O)OCC [ethyl propenoate]
reference: Brockbank (2013)
  Henry solubility constant Hcp: 0.039

## C1=C\CCCCCC/1 [cyclooctene]
reference: Brockbank (2013)
  Henry solubility constant Hcp: 0.00021

## CCCCCCCC#N [octanenitrile]
reference: Plyasunov et al. (2006)
  Henry solubility constant Hcp: 0.057

## CCCCCCCc1ccccc1 [heptylbenzene]
reference: Brockbank (2013)
  Henry solubility constant Hcp: 0.00027

## c1cc2cccc3c4cccc5cccc(c(c1)c23)c54 [perylene]
[9]
  Henry solubility constant Hcp: 330

## c1ccc2cc3c(cc2c1)-c1cccc2cccc-3c12 [benzo[k]fluoranthene]
reference: Goldstein (1982)
  Henry solubility constant Hcp: 0.0096

## CCC(C)CC [3-methylpentane]
reference: Brockbank (2013)
  Henry solubility constant Hcp: 5.9e-06

## [H] [hydrogen atom]
[2]
  Henry solubility constant Hcp: 2.6e-06
[3]
  Henry solubility constant Hcp: 2.6e-06
[6]
  Henry solubility constant Hcp: 2.6e-06
[7]
  Henry solubility constant Hcp: 2.6e-06

## CC1CCCC1 [methylcyclopentane]
reference: Brockbank (2013)
  Henry solubility constant Hcp: 2.8e-05

## FN(F)N(F)F [dinitrogen tetrafluoride]
[2]
  Henry solubility constant Hcp: 8.4e-06
[3]
  Henry solubility constant Hcp: 8.4e-06
[7]
  Henry solubility constant Hcp: 8.4e-06

## CCOP(=S)(NC(C)C)Oc1ccccc1C(=O)OC(C)C (stereo not given) [isofenphos]
[1]
  Henry solubility constant Hcp: 1000
reference: MacBean (2012b)
  Henry solubility constant Hcp: 240

## CC(C)O [2-propanol]
reference: Brockbank (2013)
  Henry solubility constant Hcp: 1.2
[2]
  Henry solubility constant Hcp: 1.2
[3]
  Henry solubility constant Hcp: 1.2
[8]
  Henry solubility constant Hcp: 1.2
reference: Hine and Weimar (1965)
  Henry solubility constant Hcp: 1.7
[6]
  Henry solubility constant Hcp: 1.3
[7]
  Henry solubility constant Hcp: 1.3

## CCc1ccccc1N [2-ethylaniline]
reference: Brockbank (2013)
  Henry solubility constant Hcp: 2.6

## CCCC(C)CC (stereo not given) [3-methylhexane]
reference: Brockbank (2013)
  Henry solubility constant Hcp: 3.2e-06

## ClCCOCCCl [1,5-dichloro-3-oxapentane]
reference: Brockbank (2013)
  Henry solubility constant Hcp: 0.48
reference: Goldstein (1982)
  Henry solubility constant Hcp: 0.46 and 0.47
reference: Harrison et al. (1993)
  Henry solubility constant Hcp: 0.37

## CCOC(=O)CCl [ethyl chloroethanoate]
reference: Brockbank (2013)
  Henry solubility constant Hcp: 0.26

## ClC1=C(Cl)[C@]2(Cl)C3C(Cl)C(Cl)CC3[C@@]1(Cl)C2(Cl)Cl (stereo not given in full) [chlordane]
[1]
  Henry solubility constant Hcp: 0.0011

## O=[N+]([O-])c1ccccc1O [2-nitrophenol]
reference: Goldstein (1982)
  Henry solubility constant Hcp: 0.69

## c1ccc(Nc2ccccc2)cc1 [diphenylamine]
reference: Howard et al. (1991)
  Henry solubility constant Hcp: 3.5

## ClBr [bromine chloride]
[2]
  Henry solubility constant Hcp: 0.0097
[3]
  Henry solubility constant Hcp: 0.0097
[6]
  Henry solubility constant Hcp: 0.0097
[7]
  Henry solubility constant Hcp: 0.0097

## CBr [bromomethane]
reference: Brockbank (2013)
  Henry solubility constant Hcp: 0.0015
[2]
  Henry solubility constant Hcp: 0.0017
[3]
  Henry solubility constant Hcp: 0.0015
reference: Goldstein (1982)
  Henry solubility constant Hcp: 4.4e-05
[6]
  Henry solubility constant Hcp: 0.0017
[7]
  Henry solubility constant Hcp: 0.0017

## CNC(=O)Oc1cc(C)c(SC)c(C)c1 [methiocarb]
reference: MacBean (2012b)
  Henry solubility constant Hcp: 8400

## CCCCCCCCCCCO [1-undecanol]
reference: Brockbank (2013)
  Henry solubility constant Hcp: 0.14

## COC(=O)C(F)(F)F [trifluoroethanoic acid, methyl ester]
[2]
  Henry solubility constant Hcp: 0.0011
[3]
  Henry solubility constant Hcp: 0.0011
[7]
  Henry solubility constant Hcp: 0.0011

## CC(Cc1ccc(C(C)(C)C)cc1)CN1C[C@@H](C)O[C@@H](C)C1 (stereo not given in full) [fenpropimorph]
[1]
  Henry solubility constant Hcp: 0.062

## c1ccc2c(c1)[nH]c1ccccc12 [carbazole]
reference: Brockbank (2013)
  Henry solubility constant Hcp: 94

## CC(C)(C)OC=O [(1,1-dimethylethyl)-methanoate]
reference: Brockbank (2013)
  Henry solubility constant Hcp: 0.014

## CNC=O [N-methylmethanamide]
reference: Brockbank (2013)
  Henry solubility constant Hcp: 1400
[2]
  Henry solubility constant Hcp: 1400
[3]
  Henry solubility constant Hcp: 1400

## Cc1cc(C)cc(C)c1 [1,3,5-trimethylbenzene]
reference: Brockbank (2013)
  Henry solubility constant Hcp: 0.0012

## FC(F)Cl [chlorodifluoromethane]
[2]
  Henry solubility constant Hcp: 0.00035
[3]
  Henry solubility constant Hcp: 0.00035
[7]
  Henry solubility constant Hcp: 0.00034

## C(=C\c1ccccc1)/c1ccccc1 [(E)-stilbene]
[9]
  Henry solubility constant Hcp: 0.025

## CC(C)C(C)C [2,3-dimethylbutane]
reference: Brockbank (2013)
  Henry solubility constant Hcp: 8e-06

## OCC(Cl)Cl [2,2-dichloroethanol]
[2]
  Henry solubility constant Hcp: 0.37
[3]
  Henry solubility constant Hcp: 0.37

## C#CCC [1-butyne]
reference: Brockbank (2013)
  Henry solubility constant Hcp: 0.00056

## CCC(C)(C)O [2-methyl-2-butanol]
reference: Brockbank (2013)
  Henry solubility constant Hcp: 0.65

## CCC(C)(C)OC [2-methoxy-2-methylbutane]
reference: Brockbank (2013)
  Henry solubility constant Hcp: 0.0097
